Tests used:
MMPs = assay: MMP inhibition at trough plasma level in pigs; settings: 20 mg/kg/day oral
[1] = tested on: pacing-induced heart failure model; assay: pacing-induced heart failure in pigs, first study (echocardiography); assay type: in vivo, pig
Protocol: A study was performed in four pigs in which atrial pacemakers were implanted. Heart failure was induced by chronic rapid pacing (i.e., increasing heart rate to 240 beats per minute). Echocardiographic assessment of cardiac function, chamber dimensions, and structure was performed prior to the initiation of pacing, and following 1 and 3 weeks of rapid pacing. Previous studies have shown that 1 week of rapid atrial pacing represents an early timepoint in the development of heart failure in which cardiac dilation is evident, but there is no significant effect on left ventricular (LV) systolic function. Two pigs were dosed with the MMP-inhibitor 2-(4'-bromobiphenyl-4-sulfonylamino)-3-methylbutyric acid (Compound A) (20 mg/kg/day) which was given once a day orally. This dosage was selected based upon pharmacokinetic data in which this dosage regimen would provide minimal steady state plasma levels of 10 μM Compound A. One pig dosed with Compound A was sacrificed at the end of 1 week of pacing, and the second pig was paced for a full 3 weeks. At the end of 3 weeks, pigs were euthanized and the heart removed. Cardiac myocytes were isolated from a portion of the left ventricle to measure changes in cell length.
MMP-Inhibitor efficacy in treating heart failure was defined as stopping cardiac dilation, preserving cardiac function, and reducing cardiac myocyte lengthening. Cardiac dilation was assessed by measuring changes in the end-diastolic dimension between the left ventricular free wall and left ventricular septum. Cardiac function was also measured using m-mode echocardiography by calculating the percent fraction shortening, or in other words, how well the left ventricle of the heart pumped blood into the circulation. Cellular remodelling was measured by isolating cardiac myocytes using a standard collagenase digestion procedure and measuring cell length using digital photomicroscopy. To confirm plasma drug levels of the MMP-inhibitor, plasma was collected prior to dosing on each day of the pacing protocol.

gelatinases = assay: plasma MMP inhibitory activity (thiopeptolide hydrolysis), gelatinases; assay type: biochemical; settings: plasma after 10 mg/kg oral administration
Protocol: (§1) The MMP inhibitor chosen for these studies was Compound A as above. A single oral dose of 10 mg/kg of Compound A was administered in one pig, and a second pig was simultaneously administered a single 10 mg/kg dose of the MMP inhibitor intravenously. Plasma samples were serially collected from the chronically placed arterial access ports. Plasma levels of the MMP inhibitor were determined by the degree of hydrolysis of the MMP substrate thiopeptolide Ac-Pro-Leu-Gly-thioester-Leu-Leu-Gly=OEt. […] A pharmacokinetic profile was constructed using these initial data, and it was predicted that an oral delivery of 20 mg/kg/day of Compound A would provide significant MMP plasma inhibitory activity at trough levels. Accordingly, the 3 pigs underwent 20 mg/kg QD-AM of treatment with Compound A for 5 days. In order to confirm adequate MMP inhibitory activity, plasma was collected prior to the AM dose with each day of treatment. […] Thus, a practical dosing regiment of Compound A was established which provided stable plasma MMP inhibitory activity in the animal model to be used in the present study.

MMP = MMP inhibitory activity of plasma from treated pigs, artificial MMP substrate; assay type: biochemical
Protocol: as §1

[2] = tested on: chronic rapid pacing heart failure model; assay: LV geometry, LV function and systemic hemodynamics with chronic rapid pacing (Table III); assay type: in vivo, pig; settings: Rapid Pacing + MMPi, 20 mg/kg QD, 3 weeks, mean ± SEM
Description: Pacemakers were implanted or sham procedures performed with the animals anesthetized as described in the preceding section. In addition to the placement of the aortic access port, a shielded stimulating electrode was sutured onto the left atrium, connected to a modified programmable pacemaker (8329, Medtronic, Inc., Minneapolis, Minn.), and buried in a subcutaneous pocket. The pericardium was approximated, the thoracotomy closed, and the pleural space evacuated of air. Ten to 14 days following recovery from the surgical procedure, baseline studies were performed, and the protocols described above were begun. Cardiac auscultation and an electrocardiogram were performed frequently during the pacing protocol in order to ensure proper operation of the pacemaker and the presence of 1:1 conduction. In this porcine preparation, atrio-ventricular conduction can be maintained at this pacing rate and therefore provide a homogeneous pattern of ventricular myocardial electrical activation. The sham operated controls were cared for in identical fashion with the exception of the pacing protocol. All animals were treated and cared for in accordance with the National Institutes of Health "Guide for the Care and Use of Laboratory Animals" (National Research Council, Washington, 1996).
LV size and function were measured at weekly intervals in all of the pigs undergoing rapid pacing. For these studies, the animals were brought to the laboratory and the pacemaker deactivated. All measurements were performed at an ambient resting heart rate within 30 to 40 minutes following pacemaker deactivation. Two-dimensional and M-mode echocardiographic studies (ATL Ultramark VI, 2.25 MHz transducer, Bothell, Wash.) were used to image the LV from a right parasternal approach. LV fractional shortening was calculated as ([…])/end-diastolic dimension and was expressed as a percent. Peak circumferential global average wall stress was computed using a spherical model of reference: σ(gm/cm^2)=(PD/4h(1+h/D))×1.36; where P=aortic systolic pressure measured from the access port, D=minor axis dimension at end-diastole, and h=wall thickness. The mean velocity of circumferential fiber shortening (Vcf) was calculated using the LV echocardiographic dimension measurements and the arterial pressure trace. The LV ejection time, used in the calculation of Vcf, was rate-corrected to a heart rate of 60 bpm by […] by the square root of the RR interval.

plasma neurohormones = plasma neurohormones with chronic rapid pacing (Table III); assay type: in vivo, pig; settings: Rapid Pacing + MMPi, 20 mg/kg QD, 3 weeks, mean ± SEM
Protocol: Following steady-state LV function measurements, 35 cc of blood was drawn from the arterial access port into chilled tubes containing EDTA (1.5 mg/mL). The blood samples were immediately centrifuged (2000 g, 10 min, 4° C.), the plasma decanted into separate tubes, frozen in a dry ice/methanol bath, and stored at -80° C. until the time of assay.
The plasma samples were assayed for renin activity, catecholamine levels, and plasma MMP inhibition levels. Plasma renin activity (PRA) was determined by computing angiotensin I production using a radioimmunoassay (NEA-026, New England Nuclear, Boston, Mass.). Plasma norepinephrine was measured using high-performance liquid chromatography and normalized to pg/mL of plasma. All assays were performed in duplicate.
For comparisons of neurohormonal profiles, the Student-Neuman-Kuells test was employed. […] Values of p<0.05 were considered to be statistically significant.

[3] = 20 mg/kg/day oral, paced 7 days
[4] = 20 mg/kg/day oral, paced 21 days
[5] = Paced + Compound A group, baseline

Compound: CC(C)C(NS(=O)(=O)c1ccc(-c2ccc(Br)cc2)cc1)C(=O)O (centres unmarked) [Compound A, 2-(4'-bromobiphenyl-4-sulfonylamino)-3-methylbutyric acid]
- inhibition of MMPs at trough level (MMPs): a level great enough to inhibit all MMPs tested
- End-Diastolic Dimension [1, 3]: 3.6 ± 0.2 cm
- Fractional Shortening [1, 3]: 33 ± 3%
- Heart Rate [1, 3]: 120 ± 3 BPM
- LV Stress [1, 3]: 50 ± 4 g/cm2
- End-Diastolic Dimension [1, 4]: 4.3 cm
- Fractional Shortening [1, 4]: 22%
- decrease in cardiac function (fractional shortening) ([1]; 3 weeks of pacing): 39%
- increase in cardiac dilation (left ventricular end-diastolic dimension) ([1]; 3 weeks of pacing): 26%
- End-Diastolic Dimension [1, 5]: 3.4 ± 0.2 cm
- Fractional Shortening [1, 5]: 36 ± 3%
- Heart Rate [1, 5]: 105 ± 4 BPM
- LV Stress [1, 5]: 46 ± 3 g/cm2
- left ventricular end-diastolic volume versus control values ([1]; first week of pacing): remained unchanged from control values
- left ventricular wall stress versus control values ([1]; first week of pacing): remained unchanged from control values
- fractional shortening, change ([1]; following 1 week of pacing): unchanged
- reduction in activity against the gelatinases (gelatinases): ~50%
- plasma MMP inhibitory activity (MMP; pig, 20 mg/kg QD for 5 days, pre-dose plasma): significant plasma MMP inhibitory activity was observed
- reduction of in vitro MMP activity by plasma (MMP; plasma after 3 days of treatment, 20 mg/kg QD, artificial MMP substrate): over 100%
- End-Diastolic Dimension [2]: 4.7 ± 0.2 cm
- Fractional Shortening [2]: 26 ± 3%
- Heart Rate [2]: 149 ± 3 bpm
- Mean Arterial Pressure [2]: 83 ± 2 mmHg
- Peak Wall Stress [2]: 185 ± 11 g/cm^2
- Vcf (velocity of circumferential fiber shortening) [2]: 1.4 ± 0.2 s⁻¹
- Vcfc (velocity of circumferential fiber shortening corrected for heart rate) [2]: 2.3 ± 0.2 s⁻¹
- Wall Thickness [2]: 0.80 ± 0.22 CM
- Norepinephrine (plasma neurohormones): 1073 ± 241 pg/mL
- Renin Activity (plasma neurohormones): 10.4 ± 1.1 ng/mL/h
